In patent EP2878677A1, “Activators of protein phosphatase 5” (Deutsches Zentrum für Neurodegenerative Erkrankungen e.V. …, priority 2013, dated 2015):

Experiments:
Hsp90/DAF-21 = target: T1, Hsp90/DAF-21 (Caenorhabditis elegans, UniProt Q18688); assay: coupled regenerative ATPase assay; assay type: biochemical, C. elegans; settings: concentrations well above the KD; also with AHA-1; 30 °C
T1 construct: made in house
Method: (§1) ATPase activity can be measured as described in Gaiser et al., 2009 with an ATPase assay that is carried out as a regenerative assay, wherein ADP produced during the ATPase reaction is recycled to ATP with the help of lactate dehydrogenase, NADH, phosphoenolpyruvate and pyruvate kinase. This changes the absorbance at 340 nm, when NADH is oxidized to NAD^+, giving a sensitive signal for the determination of activity. The change in absorbance at 340 nm that occurs during oxidizing of NADH to NAD^+ is measured by spectroscopic measures. Preferably, said in vitro ATPase assay is carried out at 30 °C. Preferably, said in vitro ATPase assay is carried out in the presence of 3 µM or the chaperone protein. Preferably the concentration of each of the cochaperones present is 5 µM. Preferably, the chaperones and cochaperones used are bacterially expressed proteins.
(§2) The activity of the ATPases Hsc70/HSP-1 and Hsp90/DAF-21 were assessed in a coupled regenerative ATPase assay as described before (Gaiser et al., 2009). Reactions were measured in a Varian Cary 100 spectrophotometer (Agilent Technologies, Boeblingen, Germany) at 30 °C and the depletion of NADH was followed at 340 nm. Chaperone concentration was 3 µM and cochaperones were added, when indicated, at a concentration of 5 µM.

Hsc70/HSP-1 = target: T2, Hsc70/HSP-1 (Caenorhabditis elegans, UniProt P09446); assay: coupled regenerative ATPase assay; assay type: biochemical, C. elegans; settings: concentrations well above the KD; also with BAG-1 and DNJ-13; 30 °C
T2 construct: made in house; host or cells: bacteria
T2 sequence (P09446 whole entry): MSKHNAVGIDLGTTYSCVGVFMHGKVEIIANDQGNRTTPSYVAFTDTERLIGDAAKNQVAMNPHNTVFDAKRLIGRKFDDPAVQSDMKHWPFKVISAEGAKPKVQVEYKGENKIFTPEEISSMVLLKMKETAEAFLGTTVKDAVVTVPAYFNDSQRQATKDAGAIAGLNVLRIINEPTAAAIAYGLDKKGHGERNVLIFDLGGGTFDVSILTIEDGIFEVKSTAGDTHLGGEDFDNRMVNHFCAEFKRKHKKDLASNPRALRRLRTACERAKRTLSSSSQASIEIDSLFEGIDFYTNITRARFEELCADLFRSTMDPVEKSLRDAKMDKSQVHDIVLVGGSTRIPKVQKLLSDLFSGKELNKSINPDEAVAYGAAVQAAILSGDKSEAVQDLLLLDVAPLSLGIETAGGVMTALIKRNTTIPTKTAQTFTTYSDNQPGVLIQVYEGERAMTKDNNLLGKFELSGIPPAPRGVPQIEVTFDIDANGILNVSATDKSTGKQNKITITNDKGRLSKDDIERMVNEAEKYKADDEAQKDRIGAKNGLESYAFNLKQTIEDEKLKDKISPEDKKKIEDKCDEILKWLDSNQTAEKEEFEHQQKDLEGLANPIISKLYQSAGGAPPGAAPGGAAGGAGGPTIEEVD
Method: as §1, §2

[1] = system: human tau-P301L-transfected mice brains; assay: human tau-P301L-transfected mice treated via mini-osmotic pumps, immunohistochemistry of the hippocampus; assay type: in vivo, C57BL/6 mice
Method: All protocols for animal experiments described in this study were performed according to the German laws for animal experimentation (Tierschutzgesetz) from 1998. The study was approved by the authorities of the State of Saxony-Anhalt (Landesverwaltungsamt) and performed according to institutional guidelines. Animals were maintained under constant environmental conditions with ambient temperature of 20 ± 2 °C and relative humidity of 50%. They were housed with a 12 hour light-dark cycle and given food and water ad libitum. Adult wild-type C57BL/6 mice (10 weeks old) obtained from Charles River Laboratories (Sulzfeld, Germany) were used for all studies. 4% halothane in a mixture of nitrous oxide/oxygen (ratio 70:30) was used for the induction of anesthesia and 1 to 1.5% halothane for the maintenance of anesthesia. Halothane was applied via a nose cone. Throughout all surgical procedures, the animal's body temperature was kept at 37°C using a thermostatically controlled heating blanket. Intracerebral injection of viral particles into the hippocampus of the right brain hemisphere of anesthetized mice was performed stereotactically at coordinates 2.6 mm posterior to bregma, lateral 1.0 mm and ventral 2.0 mm. 2 µl of high titer viral suspension were injected with a fixed syringe (Hamilton Company, Reno, NV, USA). After injection at a rate of 0.2 µl/min, the cannula was left in place for further 30 sec before slow withdrawal. After surgery, the wound was sutured.
Mini-osmotic pumps (Model 2006, Alzet, Palo Alto, CA, USA) were implanted intraperitoneal (ip) through a midline incision immediately after P301L transfection. During implantation, animals remained under halothane anesthesia (details above). The pumps (internal volume: 245.6 µl) were loaded with one of the following substances: P5SA-2, P5SA-3, P5SA-4, P5SA-5 or corresponding vehicle solution (DMSO/polyethylene glycol 400 (50:50 w/w) without drug. P5SA (final concentration 1 mg/kg/day) or vehicle infusion (ip) started immediately after transplantation with a continuous flow rate of 0.15 µl/h and was maintained for 6 weeks.
6 weeks after P301L transfection, mice were anesthetized by ip injection of 4% chloral hydrate in PBS, transcardially perfused with ice-cold PBS and fixed with 4% paraformaldehyde in 0.1 M PBS. Immediately after fixation, animals were decapitated. The brains were removed and post-fixed in the same fixative overnight. Fixed brains were placed in a mouse brain matrix (Activational Systems Inc., Warren, USA) and transected into defined coronal brain slices (thickness 1 mm) along the anterior-posterior axis. After incubation in 30% sucrose containing PBS for cryoprotection, 20 µm-thick frontal sections, comprising the hippocampal formation, were cut using a cryostat (Microm International GmbH, Walldorf, Germany). For immunohistochemical staining, sections were washed in 0.1 M PBS. Free-floating sections were permeabilized with 0.2% Triton X-100 in PBS containing 10% normal horse serum for 30 min. After washing with PBS, unspecific antibody binding was blocked by 10% normal horse serum for 30 min, followed by a further wash in 0.1 M PBS. Then, sections were incubated with primary antibodies. For immunofluorescence staining, primary antibodies directed against total tau (human plus endogenous mice tau, K9JA) and MAP2 (microtubule-associated protein 2), respectively, were applied simultaneously. Alternatively, the primary antibodies AT8 (human phospho-tau, AT8 (Ser202/Thr205) phosphorylation site) and the human tau-specific primary antibody tau-13 were used individually. After overnight incubation at 4°C, sections were rinsed with 0.1 M PBS. Sections exposed to the primary antibody combination K9JA/MAP2 were incubated with the complementary secondary antibodies goat anti-rabbit IgG Alexa Fluor 488 and goat anti-mouse IgG Alexa Fluor 594. AT8 and tau-13 were visualized with goat anti-mouse IgG Alexa Fluor 594. […]

[2] = 1 mg/kg/day, continuous ip infusion for 6 weeks

| SMILES | ATPase activity of Hsp90/DAF-21 (Hsp90/DAF-21) | ATPase activity of Hsc70/HSP-1 (Hsc70/HSP-1) | phosphorylation of human tau-P301L at its AT8 epitope (Ser202/Thr205) [1, 2] | tau-P301L-dependent pattern of neuronal degeneration in the hippocampal formation [1, 2] | numbers of AT8-positive perikarya of CA3 pyramidal neurons per hippocampal slice ([1]; 1 mg/kg/day ip for 6 weeks, mean ± SEM, vehicle 7.0 ± 2.0, P< 0.0001) | tau-P301L-dependent localization of total tau signals in the perikarya of CA1 and CA3 pyramidal neurons [1, 2] |
| --- | --- | --- | --- | --- | --- | --- |
| FC(F)(F)c1c2c(nc3c(-c4ccc(Cl)cc4)cnn13)CCC2 [P5SA-1] | no effect | no additional effect |  |  |  |  |
| COc1ccc(-c2nc(Cc3ccc(Cl)cc3)no2)cc1OC [P5SA-2] | no effect | no additional effect | diminished | not observed |  |  |
| CN1CCc2c(sc(-n3cccc3)c2CNC(=O)NC23CC4CC(CC(C4)C2)C3)C1 [P5SA-3] |  |  | diminished | not observed |  |  |
| O=c1cc2nc(-c3ccc(F)cc3)nc(SCc3ccc(Br)cc3)n2[nH]1 [P5SA-4] | no effect | no additional effect | diminished | not observed |  |  |
| CNC(=O)c1c(NC(=O)COCC(=O)Nc2sc3c(c2C(=O)NC)CCC3)sc2c1CCC2 [P5SA-5] | no effect | no additional effect | remarkably reduced | decreased | 2.2 ± 1.4 | remained unaffected |
